Measured values reported in patent US11613522B2, “Herbicidally active 3-phenylisoxazoline-5-carboxamides of tetrahydro- and dihydrofurancarboxamides” (BAYER AKTIENGESELLSCHAFT, priority 2017, dated 2023).

Legend:
Type in all cases: in vivo
[1] = test system: Hordeum murinum; experiment: Pre-emergence herbicidal activity against HORMU; settings: dosage 80 g/ha
Method in brief: (§1)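 Seeds sown in pots and covered with soil; compounds formulated as WP or EC were sprayed onto the soil surface as aqueous suspension/emulsion with 0.5% additive at 600 l/ha water. Greenhouse growth; visual percent activity versus untreated controls after about 3 weeks (100% = plants dead, 0% = like control).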

[2] = test system: Alopecurus myosuroides; experiment: Pre-emergence herbicidal activity against ALOMY; settings: dosage 80 g/ha, scored visually after about 3 weeks vs untreated controls
Method in brief: as §1

[3] = test system: Veronica persica; experiment: Pre-emergence herbicidal activity against VERPE; settings: dosage 80 g/ha
Method in brief: as §1

[4] = test system: Avena fatua; experiment: Pre-emergence herbicidal activity against AVEFA; settings: dosage 80 g/ha, scored visually after about 3 weeks vs untreated controls
Method in brief: as §1

[5] = test system: Alopecurus myosuroides; experiment: Post-emergence herbicidal activity against ALOMY; settings: dosage 320 g/ha, rated visually after about 3 weeks
Method in brief: (§2)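 Percent herbicidal activity, 0% like controls and 100% dead plants, is scored visually roughly 3 weeks after foliar treatment. Treatment follows 2–3 weeks of greenhouse growth in sandy loam, at the one-leaf stage, using WP or EC preparations in water with 0.5% additive (600 l/ha).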

[6] = test system: Polygonum convolvulus; experiment: Pre-emergence herbicidal activity against POLCO; settings: dosage 80 g/ha, scored visually after about 3 weeks vs untreated controls
Method in brief: as §1

[7] = test system: Echinochloa crus-galli; experiment: Post-emergence herbicidal activity against ECHCG; settings: dosage 320 g/ha, rated visually after about 3 weeks
Method in brief: as §2

[8] = test system: Lolium rigidum; experiment: Post-emergence herbicidal activity against LOLRI; settings: dosage 320 g/ha, rated visually after about 3 weeks
Method in brief: as §2

[9] = test system: Echinochloa crus-galli; experiment: Pre-emergence herbicidal activity against ECHCG; settings: dosage 80 g/ha, scored visually after about 3 weeks vs untreated controls
Excerpt: (§3) 1. Pre-emergence herbicidal action against harmful plants and crop plant compatibility Seeds of monocotyledonous and dicotyledonous weed plants and crop plants are placed in plastic or wood fiber pots and covered with soil. The compounds of the invention, formulated in the form of wettable powders (WP) or as emulsion concentrates (EC), are then applied onto the surface of the covering soil as aqueous suspension or emulsion with addition of 0.5% additive at a water application rate of 600 l/ha (converted). After the treatment, the pots are placed in a greenhouse and kept under good growth conditions for the trial plants. After about 3 weeks, the effect of the preparations is scored visually in comparison with untreated controls as percentages. For example, 100% activity=the plants have died, 0% activity=like control plants. [table]

[10] = test system: Abutilon theophrasti; experiment: Post-emergence herbicidal activity against ABUTH; settings: dosage 320 g/ha, rated visually after about 3 weeks
Method in brief: as §2

[11] = test system: Polygonum convolvulus; experiment: Post-emergence herbicidal activity against POLCO; settings: dosage 320 g/ha, rated visually after about 3 weeks
Method in brief: as §2

[12] = test system: Hordeum murinum; experiment: Post-emergence herbicidal activity against HORMU; settings: dosage 320 g/ha, rated visually after about 3 weeks
Method in brief: as §2

[13] = test system: Lolium rigidum; experiment: Pre-emergence herbicidal activity against LOLRI; settings: dosage 80 g/ha, scored visually after about 3 weeks vs untreated controls
Method in brief: as §1

[14] = test system: Amaranthus retroflexus; experiment: Pre-emergence herbicidal activity against AMARE; settings: dosage 80 g/ha, scored visually after about 3 weeks vs untreated controls
Method in brief: as §1

[15] = test system: Viola tricolor; experiment: Post-emergence herbicidal activity against VIOTR; settings: dosage 320 g/ha, rated visually after about 3 weeks
Method in brief: as §2

[16] = test system: Viola tricolor; experiment: Pre-emergence herbicidal activity against VIOTR; settings: dosage 80 g/ha, scored visually after about 3 weeks vs untreated controls
Method in brief: as §1

[17] = test system: Amaranthus retroflexus; experiment: Post-emergence herbicidal activity against AMARE; settings: dosage 320 g/ha, rated visually after about 3 weeks
Method in brief: as §2

[18] = test system: Setaria viridis; experiment: Post-emergence herbicidal activity against SETVI; settings: dosage 320 g/ha, rated visually after about 3 weeks
Method in brief: as §2

[19] = test system: Pharbitis purpurea; experiment: Pre-emergence herbicidal activity against PHBPU; settings: dosage 80 g/ha, scored visually after about 3 weeks vs untreated controls
Excerpt: as §3

[20] = test system: Stellaria media; experiment: Pre-emergence herbicidal activity against STEME; settings: dosage 80 g/ha, scored visually after about 3 weeks vs untreated controls
Method in brief: as §1

[21] = test system: Veronica persica; experiment: Post-emergence herbicidal activity against VERPE; settings: dosage 320 g/ha, rated visually after about 3 weeks
Method in brief: as §2

[22] = test system: Pharbitis purpurea; experiment: Post-emergence herbicidal activity against PHBPU; settings: dosage 320 g/ha, rated visually after about 3 weeks
Method in brief: as §2

[23] = test system: Avena fatua; experiment: Post-emergence herbicidal activity against AVEFA; settings: dosage 320 g/ha, rated visually after about 3 weeks
Method in brief: as §2

[24] = test system: Setaria viridis; experiment: Pre-emergence herbicidal activity against SETVI; settings: dosage 80 g/ha, scored visually after about 3 weeks vs untreated controls
Method in brief: as §1

[25] = test system: Stellaria media; experiment: Post-emergence herbicidal activity against STEME; settings: dosage 320 g/ha, rated visually after about 3 weeks
Method in brief: as §2

[26] = Pre-emergence herbicidal action against harmful plants (summary of the tables); settings: 504 h, application rate of 0.08 kg of active substance or less per hectare, read-out: herbicidal action, pre-emergence treatment (very good activity)
Excerpt: as §3, with “plants.” for “plants. [table]”
As shown by the results, compounds according to the invention such as, for example, the compounds No. I-02 and other compounds from the tables (I-05, I-10, I-11, I-12, I-13, I-14, I-15, I-16, I-17, I-18, I-19, I-20, I-21, I-22, I-23, I-24, I-25, I-26, I-27, I-28, I-29) have, when used for pre-emergence treatment, very good activity (80% to 100% herbicidal action) against harmful plants such as Abutilon theophrasti, Alopecurus myosuroides, Amaranthus retroflexus, Avena fatua, Cyperus esculentus, Echinochloa crus-galli, Hordeum murinum, Lolium rigidum, Pharbitis purpurea, Polygonum convolvulus, Setaria viridis, Stellaria media, Veronica persica and Viola tricolor at an application rate of 0.08 kg of active substance or less per hectare.

SMILES: C[C@]1(C(=O)N[C@@H]2CO[C@H](C(=O)NS(C)(=O)=O)C2)CC(c2cc(F)cc(F)c2)=NO1 [Example I-23]
- Pre-emergence herbicidal activity in % against HORMU [1]: 90%
- Pre-emergence herbicidal activity in % against ALOMY [2]: 100%
- Pre-emergence herbicidal activity in % against VERPE [3]: 90%
- Pre-emergence herbicidal activity in % against AVEVA (AVEFA) [4]: 100%
- Post-emergence herbicidal activity in % against ALOMY [5]: 90%
- Pre-emergence herbicidal activity in % against POLCO [6]: 100%
- Post-emergence herbicidal activity in % against ECHCG [7]: 90%
- Post-emergence herbicidal activity in % against LOLRI [8]: 100%
- Pre-emergence herbicidal activity in % against ECHCG [9]: 100%
- Post-emergence herbicidal activity in % against ABUTH [10]: 80%
- Post-emergence herbicidal activity in % against POLCO [11]: 90%
- Post-emergence herbicidal activity in % against HORMU [12]: 100%
- Pre-emergence herbicidal activity in % against LOLRI [13]: 100%
- Pre-emergence herbicidal activity in % against AMARE [14]: 100%
- Post-emergence herbicidal activity in % against VIOTR [15]: 80%
- Pre-emergence herbicidal activity in % against VIOTR [16]: 90%
- Post-emergence herbicidal activity in % against AMARE [17]: 80%
- Post-emergence herbicidal activity in % against SETVI [18]: 80%
- Pre-emergence herbicidal activity in % against PHBPU [19]: 90%
- Pre-emergence herbicidal activity in % against STEME [20]: 100%
- Post-emergence herbicidal activity in % against VERPE [21]: 80%
- Post-emergence herbicidal activity in % against PHBPU [22]: 80%
- Post-emergence herbicidal activity in % against AVEFA [23]: 100%
- Pre-emergence herbicidal activity in % against SETVI [24]: 100%
- Post-emergence herbicidal activity in % against STEME [25]: 90%

SMILES: C=C[C@]1(C(=O)N[C@@H]2CO[C@H](C(=O)NS(=O)(=O)C(F)(F)F)C2)CC(c2cc(F)cc(F)c2)=NO1 (mixture of isomers) [Example I-14, (5S)-3-(3,5-difluorophenyl)-N-[cis-5-(trifluoromethylsulfonylcarbamoyl)tetrahydrofuran-3-yl]-5-vinyl-4H-isoxazole-5-carboxamide]
- pest or weed control at 80 g/ha ([1]; Hordeum murinum, 504 h): 90%
- pest or weed control at 80 g/ha ([2]; Alopecurus myosuroides, 504 h): 100%
- pest or weed control at 80 g/ha ([3]; Veronica persica, 504 h): 90%
- pest or weed control at 80 g/ha [26]: 80 to 100%
- pest or weed control at 80 g/ha ([4]; Avena fatua, 504 h, read-out: Pre-emergence herbicidal activity in % against AVEVA (AVEFA)): 90%
- pest or weed control at 320 g/ha ([5]; Alopecurus myosuroides, 504 h): 90%
- pest or weed control at 80 g/ha ([6]; Fallopia convolvulus, 504 h): 100%
- pest or weed control at 320 g/ha ([7]; Echinochloa crus-galli, 504 h): 80%
- pest or weed control at 320 g/ha ([8]; Lolium rigidum, 504 h): 90%
- pest or weed control at 80 g/ha ([9]; Echinochloa crus-galli, 504 h): 100%
- pest or weed control at 320 g/ha ([10]; Abutilon theophrasti, 504 h): 90%
- pest or weed control at 320 g/ha ([11]; Fallopia convolvulus, 504 h): 80%
- pest or weed control at 320 g/ha ([12]; Hordeum murinum, 504 h): 80%
- pest or weed control at 80 g/ha ([13]; Lolium rigidum, 504 h): 100%
- pest or weed control at 80 g/ha ([14]; Amaranthus retroflexus, 504 h): 100%
- pest or weed control at 320 g/ha ([15]; Viola tricolor, 504 h): 100%
- pest or weed control at 80 g/ha ([16]; Viola tricolor, 504 h): 100%
- pest or weed control at 320 g/ha ([17]; Amaranthus retroflexus, 504 h): 80%
- Pre-emergence herbicidal activity in % against PHBPU [19]: 90%
- pest or weed control at 80 g/ha ([20]; Stellaria media, 504 h): 90%
- pest or weed control at 320 g/ha ([21]; Veronica persica, 504 h): 90%
- pest or weed control at 320 g/ha ([22]; Ipomoea purpurea, 504 h): 80%
- pest or weed control at 320 g/ha ([23]; Avena fatua, 504 h): 80%
- pest or weed control at 80 g/ha ([24]; Setaria viridis, 504 h): 100%
- pest or weed control at 320 g/ha ([25]; Stellaria media, 504 h): 90%
